Measured values as given in DBAASP.
≈ marks a conversion by molar mass, not a printed value. Where “and” joins values, the source holds several entries; their conditions need not be identical. Equal values may be shown once.

Experiments:
Assay in all cases: ≥ marks a high value that may be exact or a test limit, other limits are often not marked, values filed in µg/mL are converted to µM
Escherichia coli MG1655 = system: Escherichia coli MG1655
Escherichia coli = system: Escherichia coli
[1] = system: Escherichia coli DH5alpha
[2] = system: Escherichia coli ATCC 25922
[3] = system: Pseudomonas aeruginosa H188
[4] = system: Pseudomonas aeruginosa ATCC 27853
[5] = system: Staphylococcus aureus ATCC 25923
[6] = system: Acinetobacter baumannii ATCC 19606
[7] = system: Klebsiella pneumoniae ATCC 700603
[8] = system: Escherichia coli BW25113 ΔsbmA
Escherichia coli BW25113 = system: Escherichia coli BW25113
[9] = system: Salmonella enterica subsp. enterica serovar Typhimurium ATCC 14028
[10] = system: Cryptococcus neoformans ATCC 208821
[11] = system: Candida albicans ATCC 90028
[12] = system: Staphylococcus aureus ATCC 43300
[13] = system: Listeria monocytogenes LO28
[14] = system: Cronobacter sakazakii DPC 6440
[15] = system: Escherichia coli ATCC 8739
[16] = system: Pseudomonas aeruginosa PAO1
Candida albicans = system: Candida albicans

`CC[C@H](C)[C@H](NC(=O)[C@H](CCCCN)NC(=O)CNC(=O)[C@H](CC(C)C)NC(=O)[C@H](Cc1ccccc1)NC(=O)[C@H](CCC(N)=O)NC(=O)[C@H](Cc1ccccc1)NC(=O)[C@@H](N)C(C)C)C(=O)N[C@H](C(=O)N[C@@H](Cc1cnc[nH]1)C(=O)N[C@@H](Cc1cnc[nH]1)C(=O)N[C@H](C(=O)NCC(=O)N[C@@H](CC(N)=O)C(=O)N[C@@H](Cc1ccccc1)C(=O)N[C@H](C(=O)N[C@@H](C)C(=O)NCC(=O)N[C@@H](Cc1ccccc1)C(=O)N[C@@H](CO)C(=O)N[C@@H](C)C(=O)N[C@H](C(=O)N[C@@H](Cc1ccccc1)C(N)=O)C(C)C)C(C)C)C(C)C)[C@@H](C)CC` [VFQFLGKIIHHVGNFVAGFSAVF] was tested, and the MIC (Escherichia coli MG1655) was no less than 128 µM.

`CC[C@H](C)[C@H](NC(=O)[C@H](C)NC(=O)[C@H](CCCCN)NC(=O)[C@H](CC(C)C)NC(=O)[C@H](C)NC(=O)[C@@H](NC(=O)[C@H](Cc1cnc[nH]1)NC(=O)[C@H](CC(C)C)NC(=O)CNC(=O)[C@@H](NC(=O)[C@H](CCCCN)NC(=O)[C@H](CCCCN)NC(=O)[C@H](C)NC(=O)[C@H](CO)NC(=O)[C@H](CCCCN)NC(=O)[C@H](Cc1ccccc1)NC(=O)[C@@H](NC(=O)[C@H](CCCCN)NC(=O)[C@H](CC(C)C)NC(=O)[C@H](Cc1ccccc1)NC(=O)[C@H](CO)NC(=O)[C@H](CCCCN)NC(=O)[C@H](Cc1c[nH]c2ccccc12)NC(=O)[C@H](CCCCN)NC(C)=O)[C@@H](C)O)[C@@H](C)O)[C@@H](C)O)C(=O)N[C@@H](CO)C(=O)N[C@@H](CO)C(N)=O` [KWKSFLKTFKSAKKTGLHTALKAISS] showed an MIC (Escherichia coli) of 5.5 µM (≈ 16.2 µg/mL), an MIC [1] of 2.75 µM (≈ 8.11 µg/mL) and an MIC [2] of 2.75 µM (≈ 8.11 µg/mL). The MIC [3] was 2.75 µM (≈ 8.11 µg/mL) and the MIC [4] was 11 µM (≈ 32.5 µg/mL).

For `CC[C@H](C)[C@H](NC(=O)[C@H](CCCN=C(N)N)NC(=O)[C@@H](N)Cc1c[nH]c2ccccc12)C(=O)N[C@@H](CCCN=C(N)N)C(=O)N1CCC[C@H]1C(=O)N[C@@H](CCCN=C(N)N)C(=O)N1CCC[C@H]1C(=O)N1CCC[C@H]1C(=O)N[C@@H](CCCN=C(N)N)C(=O)N[C@@H](CC(C)C)C(=O)N1CCC[C@H]1C(=O)N[C@@H](CCCN=C(N)N)C(=O)N[C@@H](Cc1c[nH]c2ccccc12)C(=O)N[C@@H](CCCN=C(N)N)C(=O)N1CCC[C@H]1C(=O)N[C@@H](CCCN=C(N)N)C(=O)O` [WRIRPRPPRLPRWRPR], the MIC [5] was greater than 64 µM, the MIC [6] was 32 µM (≈ 70.3 µg/mL) and the MIC [2] was 1.5 µM and 2 µM. For the same molecule, the MIC [7] was 8 µM (≈ 17.6 µg/mL), the MIC [8] was 16 µM and ≥ 32 µM and the MIC (Escherichia coli BW25113) was 2 µM (≈ 4.39 µg/mL). It also gave an MIC [4] greater than 64 µM.

Work on `CC[C@H](C)[C@H](NC(=O)[C@@H]1CCCN1C(=O)[C@@H]1CCCN1C(=O)[C@H](CCCN=C(N)N)NC(=O)[C@H](Cc1ccccc1)NC(=O)[C@@H](N)CCCN=C(N)N)C(=O)N[C@@H](CCCN=C(N)N)C(=O)N[C@@H](CCCN=C(N)N)C(=O)N1CCC[C@H]1C(=O)N1CCC[C@H]1C(=O)N[C@H](C(=O)N[C@@H](CCCN=C(N)N)C(=O)N1CCC[C@H]1C(=O)N1CCC[C@H]1C(=O)N[C@@H](Cc1ccccc1)C(=O)N[C@@H](Cc1ccc(O)cc1)C(=O)N1CCC[C@H]1C(=O)N1CCC[C@H]1C(=O)N[C@@H](Cc1ccccc1)C(=O)O)[C@@H](C)CC` [RFRPPIRRPPIRPPFYPPF] yielded an MIC [5] greater than 64 µM, an MIC [6] of 32 µM (≈ 77 µg/mL) and an MIC [2] of 12 µM (≈ 28.9 µg/mL). For the same molecule, the MIC [7] was greater than 64 µM, the MIC [8] was no less than 32 µM and the MIC [9] was 32 µM (≈ 77 µg/mL). The MIC (Escherichia coli BW25113) was 8 µM (≈ 19.3 µg/mL) and the MIC [4] was greater than 64 µM.

`NC(=O)CC[C@H](NC(=O)[C@H](Cc1cnc[nH]1)NC(=O)[C@H](CO)NC(=O)[C@H](CCCN=C(N)N)NC(=O)[C@H](Cc1ccccc1)NC(=O)[C@H](Cc1cnc[nH]1)NC(=O)[C@H](CCCN=C(N)N)NC(=O)[C@H](Cc1cnc[nH]1)NC(=O)[C@H](Cc1cnc[nH]1)NC(=O)[C@@H](N)CO)C(=O)N[C@@H](CS)C(=O)N[C@@H](CCCN=C(N)N)C(=O)N[C@@H](CCCN=C(N)N)C(=O)O` [SHHRHFRSHQCRR] showed an MIC [10] of 4.59 µM (≈ 8 µg/mL), an MIC [6] greater than 18.3 µM and an MIC [11] of 18.3 µM (≈ 32 µg/mL). It also gave an MIC [2] greater than 18.3 µM, an MIC [7] greater than 18.3 µM and an MIC [12] of 18.3 µM (≈ 32 µg/mL). For the same molecule, the MIC [4] was greater than 18.3 µM.

In the case of `CC[C@H](C)[C@H](NC(=O)[C@@H](N)Cc1c[nH]c2ccccc12)C(=O)N[C@@H](CCC(N)=O)C(=O)N1CCC[C@H]1C(=O)N[C@@H](CCCCN)C(=O)N[C@@H](C)C(=O)N[C@@H](CCCCN)C(=O)N[C@H](C(=O)N[C@H](C(=O)N1CCC[C@H]1C(=O)N[C@@H](Cc1ccc(O)cc1)C(=O)N[C@H](C(=O)N[C@@H](CCCN=C(N)N)C(=O)N[C@@H](Cc1ccc(O)cc1)C(=O)N[C@@H](CC(C)C)C(=O)O)C(C)C)[C@@H](C)CC)C(C)C` [WIQPKAKVIPYVRYL], the MIC [13] is reported as 19.5 µM (≈ 36.6 µg/mL) and the MIC [14] is reported as no less than 78.1 µM.

In the case of `CC[C@H](C)[C@H](NC(=O)[C@H](CCCCN)NC(=O)[C@H](CC(=O)O)NC(=O)[C@H](CC(C)C)NC(=O)[C@@H](NC(=O)[C@H](CCCN=C(N)N)NC(=O)[C@H](CC(C)C)NC(=O)[C@H](CC(C)C)NC(=O)[C@H](CC(C)C)NC(=O)[C@H](CCCCN)NC(=O)[C@H](CC(N)=O)NC(=O)[C@@H](NC(=O)[C@H](CCCCN)NC(=O)[C@H](CCCCN)NC(=O)[C@@H]1CCCN1)[C@@H](C)CC)[C@@H](C)CC)C(=O)N[C@@H](C)C(=O)N[C@@H](CO)C(=O)N[C@@H](Cc1ccccc1)C(=O)N[C@@H](CO)C(=O)O` [PKKINKLLLRILDKIASFS], the MIC [15] is reported as 14.6 µM (≈ 32 µg/mL).

Work on `CC[C@H](C)[C@H](NC(=O)[C@H](C)NC(=O)[C@H](CCCCN)NC(=O)[C@H](CC(C)C)NC(=O)[C@H](C)NC(=O)[C@@H](NC(=O)[C@H](Cc1cnc[nH]1)NC(=O)[C@H](CC(C)C)NC(=O)[C@H](CC(C)C)NC(=O)[C@@H](NC(=O)[C@H](CCCCN)NC(=O)[C@H](CCCCN)NC(=O)[C@H](C)NC(=O)[C@H](CO)NC(=O)[C@H](CCCCN)NC(=O)[C@H](Cc1ccccc1)NC(=O)[C@@H](NC(=O)[C@H](CCCCN)NC(=O)[C@H](CC(C)C)NC(=O)[C@H](Cc1ccccc1)NC(=O)[C@H](CO)NC(=O)[C@H](CCCCN)NC(=O)[C@H](Cc1c[nH]c2ccccc12)NC(=O)[C@H](CCCCN)NC(C)=O)[C@@H](C)O)[C@@H](C)O)[C@@H](C)O)C(=O)N[C@@H](CO)C(=O)N[C@@H](CO)C(N)=O` [KWKSFLKTFKSAKKTLLHTALKAISS] yielded an MIC (Escherichia coli) of 0.337 µM (≈ 1.01 µg/mL), an MIC [1] of 1.35 µM (≈ 4.06 µg/mL) and an MIC [2] of 0.337 µM (≈ 1.01 µg/mL). It also gave an MIC [3] of 0.675 µM (≈ 2.03 µg/mL) and an MIC [4] of 0.675 µM (≈ 2.03 µg/mL).

`CC[C@H](C)[C@H](NC(=O)[C@@H]1CCCN1C(=O)[C@@H]1CCCN1C(=O)[C@H](CCCN=C(N)N)NC(=O)[C@H](Cc1ccccc1)NC(=O)[C@@H](N)CCCN=C(N)N)C(=O)N[C@@H](CCCN=C(N)N)C(=O)N[C@@H](CCCN=C(N)N)C(=O)N1CCC[C@H]1C(=O)N1CCC[C@H]1C(=O)N[C@H](C(=O)N[C@@H](CCCN=C(N)N)C(=O)N1CCC[C@H]1C(=O)N1CCC[C@H]1C(=O)N[C@@H](Cc1ccccc1)C(=O)N[C@@H](Cc1ccc(O)cc1)C(=O)N1CCC[C@H]1C(=O)O)[C@@H](C)CC` [RFRPPIRRPPIRPPFYP] was tested, and the MIC [5] was greater than 64 µM, the MIC [6] was 64 µM (≈ 138 µg/mL) and the MIC (Escherichia coli) was 5.66 µM (≈ 12.2 µg/mL). For the same molecule, the MIC [2] was 16 µM (≈ 34.6 µg/mL), the MIC [7] was greater than 64 µM and the MIC [8] was no less than 64 µM. For the same molecule, the MIC [9] was 32 µM (≈ 69.2 µg/mL), the MIC (Escherichia coli BW25113) was 11.3 µM (≈ 24.5 µg/mL) and the MIC [4] was greater than 64 µM.

Molecule `CC(C)C[C@H](NC(=O)[C@@H](NC(=O)[C@H](CCC(=O)O)NC(=O)[C@@H](N)CCCN=C(N)N)C(C)C)C(=O)NCC(=O)N[C@@H](Cc1ccc(O)cc1)C(=O)N[C@@H](CCC(=O)O)C(=O)N[C@@H](CCCN=C(N)N)C(=O)N[C@@H](CC(N)=O)C(=O)N[C@@H](CO)C(=O)N[C@@H](Cc1ccc(O)cc1)C(=O)N[C@@H](CCCCN)C(N)=O` [REVLGYERNSYK] has an MIC [5] greater than 128 µM, an MIC [16] greater than 128 µM and an MIC (Candida albicans) greater than 128 µM. It also gave an MIC (Escherichia coli MG1655) of no less than 128 µM.

With `CC[C@H](C)[C@H](NC(=O)[C@@H](N)Cc1c[nH]c2ccccc12)C(=O)N[C@@H](CCC(N)=O)C(=O)N[C@@H](C)C(=O)N[C@@H](CCCCN)C(=O)N[C@H](C(=O)N[C@@H](CCCCN)C(=O)N[C@H](C(=O)N[C@H](C(=O)N1CCC[C@H]1C(=O)N[C@@H](Cc1ccc(O)cc1)C(=O)N[C@H](C(=O)N[C@@H](CCCN=C(N)N)C(=O)N[C@@H](Cc1ccc(O)cc1)C(=O)N[C@@H](CC(C)C)C(=O)O)C(C)C)[C@@H](C)CC)C(C)C)[C@@H](C)O` [WIQAKTKVIPYVRYL] the MIC [13] was 9.77 µM (≈ 18.3 µg/mL) and the MIC [14] was no less than 39.1 µM.
